# Literature values in US12605432B2, “Combinations for antigen based therapy” (Diamyd Medical AB, priority 2014, dated 2026).
# Read-outs that look alike come from different tables or passages of the source.
# Experiments:
# DCs = details: decreased CD40, CD80, CD86, low IL-12, enhanced IL-10 secretion
# [1] = system: mouse islet allografts; autoimmune diabetes
# [2] = system: B cells, dendritic cells and T cells
# T1D in NOD mice = details: mouse, in vivo
# [3] = system: residual insulin secretion in T1D patients; details: in vivo
# [4] = system: blood glucose (BG) concentrations in patients; details: diabetic and nondiabetic patients in general clinical practice
molecule,measurement,setting,value
"C=C1/C(=C\C=C2/CCC[C@]3(C)[C@@H]([C@H](C)CCCC(C)(C)O)CC[C@@H]23)C[C@@H](O)C[C@@H]1O [1,25-Dihydroxyvitamin D(3)]",DC phenotype,DCs,induces DCs with a tolerogenic phenotype
same,tolerance to islet allografts,[1]; mouse,induced tolerance to mouse islet allografts
same,diabetes development,[1]; non-hypercalcemic doses,inhibited diabetes development
same,expression of IL-10 by dendritic cells and T cells,[2],enhances
same,expression of IgE by B cells,[2],inhibits
FC(F)(F)c1ccc(CNc2ccc(Cc3c[nH]c4ncccc34)cn2)cc1 [PLX647],effect on T1D in NOD mice,T1D in NOD mice,only marginal efficacy
CC1=NS(=O)(=O)c2cc(Cl)ccc2N1 [diazoxide],effect of protective agents,[3],no or transient effect
CC(C)Cc1ccc(C(C)C(=O)O)cc1 (stereo not shown) [ibuprofen],expression level of total MHC molecules and co-stimulatory molecules on DCs,dendritic cells (DCs),increased
same,phagocytic activity of DCs,dendritic cells (DCs),did not inhibit
same,MHC class I and class II-restricted presentation of antigen,dendritic cells (DCs); dendritic cells,inhibit MHC class I and class II-restricted presentation of antigen
Cc1ccc(NC(=O)c2ccc(CN3CCN(C)CC3)cc2)cc1Nc1nccc(-c2cccnc2)n1 [imatinib],effect on T1D in NOD mice,T1D in NOD mice,prevented and reversed T1D
same,IL-10 secretion,macrophage cultures,induced secretion of anti-inflammatory IL-10
NC(=O)c1cccnc1 [nicotinamide],effect of protective agents,[3],no or transient effect
CNC(=O)c1cc(Oc2ccc(NC(=O)Nc3ccc(Cl)c(C(F)(F)F)c3)cc2)ccn1 [sorafenib],blood glucose (BG),[4],significant declines in BG
Insulin: β cell specific auto-antigen,prevention of diabetes,high risk individuals; oral administration,may have a slight effect
same,prevention of diabetes,high risk individuals; parenteral administration (DPT),no effect
